Results as given in patent publication US20050196469A1, “Micronutrient supplement combination for acne treatment and prevention” (priority 2004, published 2005).

What was measured:
acneiform eruptions = experiment: Case reports: effect on acneiform eruptions in patients; assay type: in vivo, human
Excerpt: The effect of the micronutrient/mineral supplement of the present invention on acneiform eruptions is illustrated below.
1. patient six was a person with a long history of cystic acne vulgaris. They had no history of polycystic ovarian syndrome, ovarian cysts, oligomenorrhea or amenorrhea. Topical benzoyl peroxide and antibiotics provided no relief of their acne. They refused both oral contraceptive use or a trial of the diuretic spironolactone for possible acne benefits. They were contemplating a trial of accutane, when they decided to see an endocrinologist for a possible hormone etiology of their skin condition. Complete blood count, chemistries, thyroid function tests, AM cortisol were normal. Vitamin B12 and folate concentrations were normal; the total testosterone was 40 ng and not elevated; the androgenic steroids—DHEAS and androstenedione were normal. The 25 hydroxyvitamin D concentration was <5 ng/ml and intact parathyroid hormone (PTH) was elevated at 69 pg/ml (normal up to 65 pg). […] At four months, the 25 vitamin D concentration was 31 ng/ml and the total vitamin D3 was reduced to 2000 IU daily.
2. patient two was a person with chronic fatigue, inability to lose weight and severe chronic acne vulgaris unresponsive to topical treatments. They had been on Accutane multilple times but their skin improvement was transient with continual periodic acne eruptions. […] They were prescribed vitamin D3 at 4000 IU daily with calcium carbonate (elemental calcium) at 1500 mg; folate 2000 IU; vitamin B6 at 50 mcg and vitamin B12 at 500 mcg daily (B12 was prescribed at 500 mcg for 2 weeks only because of B12 deficiency) and then lowered to 50 mcg daily). A repeat 25 vitamin D level at 3 months was 30 ng and the total daily vitamin D was then lowered to 2000 IU daily; repeat B12 level was normal.
3. patient one was a person with a known history of oligomenorrhea/amenorrhea. Their menstrual cycles had been irregular with fewer than 8 cycles per year. Oral contraceptives prescribed 5 years ago normalized their menstrual cycles. […]

[1] = oral ingestion; cited from earlier work

Compound: O=C(OOC(=O)c1ccccc1)c1ccccc1 [benzoyl peroxide]
- relief of acne (acneiform eruptions; patient six, earlier topical treatment): no relief

Compound: C=C1CC[C@H](O)C/C1=C/C=C1\CCC[C@]2(C)[C@@H]([C@H](C)CCCC(C)C)CC[C@@H]12 [cholecalciferol]
- daily dose at which toxicity occurs [1]: 40,000 IU

Compound: CC1=C(/C=C/C(C)=C/C=C/C(C)=C\C(=O)O)C(C)(C)CCC1 [Accutane]
- effect on acne (acneiform eruptions; patient one, earlier and current treatment): without success
- skin improvement (acneiform eruptions; patient two, earlier treatment, multiple courses): transient
